Drawing on patent US10226452B2, “Benzoxazolone derivatives as acid ceramidase inhibitors, and their use as medicaments” (FONDAZIONE ISTITUTO ITALIANO DI TECNOLOGIA, priority 2014, dated 2019), this text covers IC50 and EC50 for six compounds.

One test deals with human (hAC) acid ceramidase (Homo sapiens (Human), UniProt Q13510). The test is described as follows: fluorescent-based in vitro assay on human acid ceramidase. The test is classed as biochemical. Conditions: hAC-enriched lysosomal lysate from HEK293 cells; fluorogenic probe 5 μM; pH 4.5. From the text: To evaluate the potency of the compounds towards acid ceramidase, a fluorescence-based in vitro assay previously described in literature (Bedia C et al., ChemBioChem, 2007, 8, 642-648) was implemented and optimized. This assay is based on a “fluorogenic probe” containing a coumarin group and a sphingoid base moiety (see figure below), which is not fluorescent in itself, but upon enzymatic cleavage by acid ceramidase followed by a chemical transformation liberates the fluorescent molecule umbelliferone (7-hydroxychromen-2-one). By quantifying the generation of umbelliferone using a fluorescence plate-reader, the level of enzymatic activity can be measured, whereby IC50 values of compounds that inhibit this activity can be generated.
Sequence of human (hAC) acid ceramidase (Q13510 22-142): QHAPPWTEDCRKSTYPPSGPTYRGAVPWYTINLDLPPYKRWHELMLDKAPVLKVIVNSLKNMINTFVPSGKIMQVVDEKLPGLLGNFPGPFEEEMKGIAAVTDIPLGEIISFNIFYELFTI
Sequence of human (hAC) acid ceramidase (Q13510 143-395): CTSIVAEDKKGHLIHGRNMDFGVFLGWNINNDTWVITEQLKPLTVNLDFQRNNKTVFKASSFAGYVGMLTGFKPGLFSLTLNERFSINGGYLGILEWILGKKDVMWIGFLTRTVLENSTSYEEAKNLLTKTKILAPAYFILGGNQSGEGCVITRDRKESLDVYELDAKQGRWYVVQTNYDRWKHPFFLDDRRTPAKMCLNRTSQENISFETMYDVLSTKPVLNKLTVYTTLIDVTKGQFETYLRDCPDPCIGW
Lysosomal lysate, enriched with acid ceramidase, was prepared from a cell line stably expressing human acid ceramidase. In the assay, the fluorogenic probe (or substrate) serves as a ceramide-analogue, which is recognized and hydrolyzed at the amide bond by acid ceramidase from the enriched lysate to yield the fatty acid and coumarinic aminodiol. By treating the solution with sodium periodate (NaIO4), the coumarinic aminodiol is subsequently oxidized into an aldehyde intermediate, which undergoes a β-elimination reaction to release the strongly fluorescent umbelliferone.
A lysosomal human acid ceramidase protein preparation was obtained from HEK293 cells stably expressing acid ceramidase suspended in 20 mM Tris HCl (pH 7.5) with 0.32 M sucrose. The cell solution was sonicated and centrifuged at 800×g for 15 min at 4° C. Supernatants were then centrifuged at 12,000×g for 30 min at 4° C. Pellets were re-suspended in PBS pH 7.4 and subjected to two freeze-thaw cycles at −80° C. The suspension was finally centrifuged at 105,000×g for 1 hour at 4° C. and protein concentration was measured in the supernatant with bicinchinonic-acid based protein assay. This human acid ceramidase-enriched preparation allowed us to further optimize the enzymatic assay and to use smaller amounts of lysate (2 μg/well) and substrate (5 μM).
The assay was performed in Optiplate 96-wells black plates, with each reaction well containing a mixture of 25 mM sodium acetate buffer pH 4.5 and a fixed amount of protein (2 μg) in a volume of 85 μL. After 30 mins of pre-incubation with test compounds (diluted 20× from DMSO stock solutions at different concentrations), the fluorogenic probe was added (diluted 20× from EtOH stock solution, final concentration 5 μM). After incubation for 3 hours at 37° C., the reactions were stopped with 50 μL of methanol and 100 μL of a 2.5 mg/mL NalO4 fresh solution in 100 mM Glycine/NaOH pH 10.6. The plate was incubated at 37° C. for 2 hours in the dark and fluorescence intensities were measured at excitation/emission wavelengths of 360/446 nm. Negative control samples consisted of the same incubation mixture in the absence of protein extracts. The IC50 values or percent of inhibition, at the indicated concentration, of selected compounds described in the invention are reported in Table 2.
The compound `O=C(NCCCCc1ccc2ccccc2c1)n1c(=O)oc2ccccc21` [Example 52, N-[4-(2-Naphthyl)butyl]-2-oxo-1,3-benzoxazole-3-carboxamide] displayed an IC50 of 57 nM.

Compound `O=C(NCCCCc1ccccc1)n1c(=O)oc2cccc(F)c21` [Example 56, 4-Fluoro-2-oxo-N-(4-phenylbutyl)-1,3-benzoxazole-3-carboxamide] showed an IC50 of 1 ± 1 nM.

In turn, `O=C(NCCCCCc1ccccc1)n1c(=O)oc2ccccc21` [Example 57, 2-Oxo-N-(5-phenylpentyl)-1,3-benzoxazole-3-carboxamide] came in with an IC50 of 54 ± 12 nM.

As to `O=C(NCCCCCCc1ccccc1)n1c(=O)oc2ccccc21` [Example 58, 2-Oxo-N-(6-phenylhexyl)-1,3-benzoxazole-3-carboxamide], it took 99 ± 58 nM to reach half-maximal inhibition (IC50).

Compound `CCCCCCCNC(=O)n1c(=O)oc2ccccc21` [Example 59, N-Heptyl-2-oxo-1,3-benzoxazole-3-carboxamide] had an IC50 of 50 ± 7 nM.

For the next test, the system named is SW403 cells. The experiment in a line: cells. The settings on record: Homo sapiens, SW-403, read-out: EC50, SW403 cell viability.
Excerpt: Combinatory index calculation of cell viability data analyzed with CompuSyn Software. The resulting combination index (CI) offers quantitative definition for additive effect (CI=1), synergism (CI<1), and antagonism (CI>1) in drug combinations. Results are expressed as mean±s.e.m. (n=8-16) of three independent experiments.
Finally, the CellTiter-Glo® Luminescent Cell Viability Assay can be used to determine the number of viable cells in culture based on quantitation of the ATP present, which signals the presence of metabolically active cells. Briefly, a volume of CellTiter-Glo® Reagent equal to the volume of cell culture medium present in each well is added to 96-well plates after drug treatment. Contents are mixed for 2 minutes on an orbital shaker to induce cell lysis and plate was incubated at room temperature for 10 minutes to stabilize signal before reading luminescence.
The compounds were added to the cultures once every 24 hours over a period of 72 hours and the effects of the combined treatments were evaluated using CompuSyn Software.
Take `O=c1[nH]cc(F)c(=O)[nH]1` [Example 5-FU, 5-fluorouracil]: the EC50 stood at 736 nM.

The term IC50 denotes the point on the concentration scale where inhibition reaches its midpoint. Read a high IC50 as weaker potency in that assay. The EC50 is the midpoint of the concentration-response curve.
